Values quoted from earlier work in patent US6491657B2, “Ultrasound enhancement of transdermal transport” (Sontra Medical, Inc., priority 1996, dated 2002).

Conditions: with ethanol as chemical enhancer

flux increase: 140 fold
Structure (SMILES): C[C@]12CC[C@@H]3c4ccc(O)cc4CC[C@H]3[C@@H]1CC[C@@H]2O [estradiol]
